According to paper PMC4749642, “Evaluation of anticonvulsant and antinociceptive properties of new N-Mannich bases derived from pyrrolidine-2,5-dione and 3-methylpyrrolidine-2,5-dione” (Naunyn-Schmiedeberg's Archives of Pharmacology, 2015):
“And” between values parts separate entries of the source, which are not always exact repeats. Identical values can stand only once. Like-named read-outs stand apart in the source and are kept apart here. Marks after values point to notes of the source that are not given here.

What was measured:
V. harveyi BB7XM [1] = experiment: Vibrio harveyi antimutagenicity assay (vs NQNO), BB7XM strain; type: cell-based; details: for Antimutagenicity BB7XM number of revertants Mean ± SD: test compound plus NQNO 40 ng/ml (NQNO line: mutagen only); for Antimutagenicity BB7XM Inhib. (%) of mutagenicity: test compound plus NQNO 40 ng/ml, 25–40 % moderate, 40 % or more strong
Method: (§1) Two V. harveyi strains were used in the experiments: wild-type BB7 and genetically modified BB7XM (the UV-hypersensitive strain bearing plasmid pAB91273), which were described previously by Czyż et al. ([2000]).
(§2) Antimutagenicity assay was performed according to previously described procedures (Czyż et al. [2002]; Pękala et al. [2013]). […] This was calculated as follows: Inhibition (%) = 100 − [(R1/R2) × 100], where R1 is the number of revertants per plate induced by test compound plus mutagen and R2 is the number of revertants in the plate containing only the mutagen (Słoczyńska et al. [2010]). No antimutagenic effect was considered when the inhibition was less than 25 %; a moderate effect for an inhibition value between 25 and 40 % and a strong antimutagenicity were recorded for inhibition higher than 40 % (Gulluce et al. [2010]).

V. harveyi BB7XM [2] = experiment: Vibrio harveyi mutagenicity assay, BB7XM strain; details: 40 ng/ml; for Mutagenicity BB7XM M.I. (mutagenic index): positive assay when M.I. ≥ 2
Method: as §1
(§3) Mutagenicity assay was performed as described previously (Czyż et al. [2000]). All experiments were carried out in triplicate and the results were expressed as mutagenic index (M.I. = the number of revertant colonies induced in the tested sample/the number of spontaneous revertants in the negative control) (Gulluce et al. [2010]).

mice [3] = details: ref Rybka et al. [2014]; cited from earlier work
V. harveyi BB7 [4] = experiment: Vibrio harveyi antimutagenicity assay (vs NQNO), BB7 strain; type: cell-based; details: for inhibition of NQNO-induced mutagenicity in BB7 strain (in words): NQNO 40 ng/ml; for Antimutagenicity BB7 number of revertants Mean ± SD: test compound plus NQNO 40 ng/ml (NQNO line: mutagen only); for Antimutagenicity BB7 Inhib. (%) of mutagenicity: test compound plus NQNO 40 ng/ml, 25–40 % moderate, 40 % or more strong
Method: as §1, §2

mice [5] = experiment: Pilocarpine-induced seizure test; type: in vivo, mouse; details: for Latency to status epilepticus (s) ± SEM: 4 h before pilocarpine 400 mg/kg; for Anticonvulsant effect (%) (prolongation of latency time to seizures vs vehicle): 4 h before pilocarpine, 100 mg/kg
Method: (§4) Male CD-1 mice weighing 18–24 g were used in the in vivo experiment. The animals were kept at room temperature of 20 ± 2 °C under standard conditions (12:12 h light-dark cycle, standard pellet diet, tap water). All the experiments were performed between 8 a.m. and 3 p.m. For the experiments, the animals were selected in a random way and sacrificed by cervical dislocation immediately after the assay. The experimental protocol was approved by the Local Ethics Commission for Animal Experiments of the Jagiellonian University in Cracow, and all experiences were conducted in accordance with the 1996 NIH Guide for the Care and Use of Laboratory Animals.
(§5) The tested compounds 12 (N-[{4-(3,4-dichlorophenyl)-piperazin-1-yl}-methyl]-3-methylpyrrolidine-2,5-dione), 13 (N-[{4-(3-trifluoromethylphenyl)-piperazin-1-yl}-methyl]-3-methylpyrrolidine-2,5-dione), 15 (N-[{4-(3-methylphenyl)-piperazin-1-yl}-methyl]-3-methylpyrrolidine-2,5-dione), 23 (N-[{4-(3,4-dichlorophenyl)-piperazin-1-yl}-methyl]-pyrrolidine-2,5-dione), and 24 (N-[{4-(3-trifluoromethylphenyl)-piperazin-1-yl}-methyl]-pyrrolidine-2,5-dione) were synthesized at the Department of Medicinal Chemistry, Jagiellonian University Medical College in Cracow (Scheme 1). The synthesis of the investigated compounds was described earlier (Rybka et al. [2014]). The investigated compounds were suspended in a 0.5 % aqueous solution of methylcellulose (Loba Chemie, Germany). Lacosamide (Vimpat, UCB Pharma, Belgium), pilocarpine (Sigma-Aldrich, Germany), scopolamine butylbromide (Sigma-Aldrich, Germany), and formaldehyde (POCh, Poland) were dissolved in distilled water. Agents were administered intraperitoneally (i.p.) at a volume of 0.1 ml/10 g. Control animals were administered an equivalent volume of vehicle (0.5 % aqueous solution of methylcellulose) via the same route as the test compounds.
The experimental procedure was originally described by Turski et al. ([1987]). Seizures were induced in mice by i.p. injection of pilocarpine at a dose of 400 mg/kg. Forty-five minutes before pilocarpine, animals were also pretreated with scopolamine butylbromide (1 mg/kg, i.p.) to reduce peripheral autonomic side effects and masticatory and stereotyped movements (Kowalczyk et al. [2014]). Direct observation was performed for 60 min to monitor the latency time to the onset of the limbic seizures, characterized by a subsequent development of behavioral symptoms, such as tremor, head bobbing, and myoclonic movements of the forelimbs progressing to recurrent myoclonic convulsions with rearing, salivation, falling, and status epilepticus (Łuszczki et al. [2008]; Turski [2000]).

mice [6] = experiment: Formalin hind paw test; type: in vivo, mouse; details: dose 30 mg/kg i.p.; for antinociceptive effect (reduction of licking response), second (late) phase: 15–30 min after 5 % formalin
Method: as §4, §5
Antinociceptive activity in the formalin hind paw test was examined according to Laughlin et al. ([2002]). Twenty microliters of a 5 % formalin solution was injected intraplantarly (i.pl.) into the right hind paw of the mouse. […] Time (in seconds) spent on licking or biting the injected hind paw in selected intervals, 0–5 and 15–30 min, was measured in each experimental group and was an indicator of nociceptive behavior. In mice, intraplantarly injection of diluted formalin produces a biphasic nocifensive behavioral response (i.e., licking or biting the injected hind paw). The acute nociceptive phase lasts for the first 5 min, whereas the second inflammatory phase occurs between 15 and 30 min after formalin injection.

[7] = system: L-type calcium channel (dihydropyridine site); experiment: L-type Ca channel (dihydropyridine site) [3H]nitrendipine binding assay; details: rat cerebral cortex
mice [8] = system: mice; set-up: method as in Rybka et al. [2014]; details: ref Rybka et al. [2014], cited from earlier work; for motor coordination in the rotarod test (in words): up to a dose of 500 mg/kg
mice [9] = experiment: Hot plate test; type: in vivo, mouse; details: dose 30 mg/kg i.p.
Method: as §4, §5
In the hot plate test, the mice were i.p. pretreated either with the test compound or vehicle before placing the animal on the hot plate apparatus (Panlab/Harvard Apparatus, Spain). This apparatus has an electrically heated surface and is supplied with a temperature controller that maintains the temperature at 55–56 °C. The time to the first reaction (licking or jumping) of mice to a nociceptive stimulus was recorded. The cutoff time was established to 60 s to avoid paw tissue damage (Sałat et al. [2014]).

mice [10] = experiment: Electroconvulsive threshold test (MEST test); type: in vivo, mouse; details: 4 h before the test; for CS50 (mA) (CI): value with 95 % confidence interval
V. harveyi BB7 [11] = experiment: Vibrio harveyi mutagenicity assay, BB7 strain; details: 40 ng/ml; for Mutagenicity BB7 M.I. (mutagenic index): positive assay when M.I. ≥ 2
Method: as §1, §3

mice [12] = experiment: Spontaneous locomotor activity (photoresistor actometers); type: in vivo, mouse; details: dose 30 mg/kg i.p.; 30-min session
Method: as §4, §5
Locomotor activity was measured with photoresistor actometers (Ugo Basile, Italy) connected to a counter for the recording of light-beam interruptions. Mice were individually placed in plastic cages for 30 min habituation period, and then the number of light-beam crossings was counted for a 30-min session. The cages were cleaned up with 70 % ethanol after each mouse.

[13] = system: L-type calcium channel (dihydropyridine site); set-up: method as in Kamiński et al. [2015b]; details: 100 μM; [3H]nitrendipine; rat cerebral cortex; ref Kamiński et al. [2015b]; cited from earlier work

| Structure (SMILES) | Antimutagenicity BB7XM number of revertants Mean ± SD (V. harveyi BB7XM [1]) | Antimutagenicity BB7XM Inhib. (%) of mutagenicity (V. harveyi BB7XM [1]) | Mutagenicity BB7XM number of revertants Mean ± SD (V. harveyi BB7XM [2]) | Mutagenicity BB7XM M.I. (mutagenic index) (V. harveyi BB7XM [2]) | ED50 in the s.c.PTZ test (mice [3]) | inhibition of NQNO-induced mutagenicity in BB7 strain (in words) (V. harveyi BB7 [4]) | Antimutagenicity BB7 number of revertants Mean ± SD (V. harveyi BB7 [4]) | Antimutagenicity BB7 Inhib. (%) of mutagenicity (V. harveyi BB7 [4]) | Latency to status epilepticus (s) ± SEM (mice [5]; dose 100 mg/kg i.p.) | Anticonvulsant effect (%) (prolongation of latency time to seizures vs vehicle) (mice [5]; dose 100 mg/kg i.p.) | antinociceptive effect (reduction of licking response), second (late) phase (mice [6]) | % inhibition of control specific binding ([7]; 10 μM) | % inhibition of control specific binding ([7]; 100 μM) | motor coordination in the rotarod test (in words) (mice [8]) | increase of electroconvulsive threshold (ECT) vs vehicle (mice [10]; dose 10 mg/kg i.p.) | CS50 (mA) (CI) (mice [10]; dose 10 mg/kg i.p.) | increase of electroconvulsive threshold (ECT) vs vehicle (mice [10]; dose 30 mg/kg i.p.) | CS50 (mA) (CI) (mice [10]; dose 30 mg/kg i.p.) | Mutagenicity BB7 number of revertants Mean ± SD (V. harveyi BB7 [11]) | Mutagenicity BB7 M.I. (mutagenic index) (V. harveyi BB7 [11]) | also measured |
| --- | --- | --- | --- | --- | --- | --- | --- | --- | --- | --- | --- | --- | --- | --- | --- | --- | --- | --- | --- | --- | --- |
| CC1CC(=O)N(CN2CCN(c3ccc(Cl)c(Cl)c3)CC2)C1=O (centres unmarked) [Compound 12, N-[{4-(3,4-dichlorophenyl)-piperazin-1-yl}-methyl]-3-methylpyrrolidine-2,5-dione] | 23 ± 5 | (5) % | 14 ± 6 | 1.2 | 134.0 mg/kg | moderate inhibitors | 28 ± 4 | (26) % | 468.8 ± 39.60 s | 37% and 36.8% | 74% | 20.2% | 59.4% | did not impair the motor coordination | 51% | 7.94 (6.57–9.57)*** mA | 118% | 14.27 (8.21–24.80)** mA | 25 ± 4 | 1.5 | reduction of the duration of the licking response, first (neurogenic) phase (mice [6]; 0–5 min after 5 % formalin): 39%; TD50 in rotarod test (mice [8]; mice): > 500 mg/kg; prolongation of latency time to pain reaction vs vehicle (mice [9]): 44%; latency time to pain reaction (mice [9]; mean ± SEM, vehicle 27.51 ± 1.36 s, cutoff 60 s): 39.73 ± 3.20 s; influence on locomotor activity (number of crossings, in words) (mice [12]): did not significantly influence on locomotor activity |
| O=C1CCC(=O)N1CN1CCN(c2ccc(Cl)c(Cl)c2)CC1 [Compound 23, N-[{4-(3,4-dichlorophenyl)-piperazin-1-yl}-methyl]-pyrrolidine-2,5-dione] | 24 ± 2 | (1) % | 9 ± 3 | 0.7 | 128.8 mg/kg | weakly suppressed | 32 ± 3 | (15) % | 669.4 ± 73.04 s | 95% and 95.4% | 89% | 12.3% | 65.9% | did not impair the motor coordination | 27% | 8.42 (7.55–9.39)** mA | 61% | 10.53 (8.06–13.77)**** mA | 19 ± 2 | 1.2 | Latency to status epilepticus (s) ± SEM (mice [5]; dose 30 mg/kg i.p.): 465.8 ± 37.61 s; effect on nocifensive response, first (neurogenic) phase (in words) (mice [6]; 0–5 min after 5 % formalin): did not attenuate the nocifensive response in this phase in a statistically significant manner; antinociceptive activity in the hot plate test (in words) (mice [9]): did not show activity; influence on locomotor activity (number of crossings, in words) (mice [12]): significantly reduced the number of crossings |
| CC1(C)O[C@@H]2[C@@H](CO[C@@]3(COS(N)(=O)=O)OC(C)(C)O[C@@H]23)O1 [Topiramate] | – | – | – | – | – | – | – | – | – | – | – | – | – | – | – | – | – | – | – | – | % inhibition of control specific binding [13]: 7.9% |
